Measurements taken from article PMC6600241, “Identification and Structure-Activity Studies of 1,3-Dibenzyl-2-aryl imidazolidines as Novel Hsp90 Inhibitors” (Molecules, 2019).
Where two headings read alike, the source gives them in different places.

How the values were obtained:
MCF-7 cells = assay: MTT anti-proliferative assay on MCF-7 cells; assay type: cell-based, human
Experimental: (§1) The anti-proliferative activity of compounds was determined by MTT (3-[4,5-dimethylthiazole-2-yl]-2,5-diphenyltetrazolium bromide) assay on MCF-7 and A549 cell lines, respectively. Cells were purchased from the Institute of Basic Medical Science, Chinese Academy of Medical Science (Beijing, China). Cells were maintained in RPMI-1640 with 10% fetal bovine serum (FBS) and 1% Penicillin-Streptomycin Solution (PS) and cultured at 37 °C in a humidified atmosphere containing 5% CO2. Compounds to be evaluated were dissolved in DMSO (dimethyl sulfoxide), diluted in RPMI-1640, and stored at −20 °C before use. Cells were seeded in 96-well plates at a density of 5000 cells/well (200 μL) and incubated overnight. Culture medium was replaced with fresh RPMI (Roswell Park Memorial Institute)-1640 containing compounds in different concentrations (100 μM–50 μM–25 μM–12.5 μM–6.25 μM–3.125 μM). Then, cells were incubated in a 5% CO2 incubator for 48 h. The 20 μL MTT solution (5 mg/mL) was added to each well and incubated at 37 °C. After 4 h, the medium was removed and formazan crystals were dissolved in 100 μL DMSO. Absorbance was measured at a wavelength of 490 nm using Synergy H1 (BioTek Instruments, Inc., Winooski, VT, USA). IC50 values were calculated by GraphPad Prism 5 (GraphPad Software, Inc., San Diego, CA, USA).

A549 cells = assay: MTT anti-proliferative assay on A549 cells; assay type: cell-based, human; conditions: mean ± SD, three experiments
Experimental: as §1

Her2 = assay: Western blotting, Her2 expression in MCF-7 cells; assay type: cell-based, human; conditions: 24 h
Experimental: (§2) Primary antibodies against Hsp70, Hsp90, Her2, and GAPDH were bought from Abcam (Cambridge, MA, USA). HRP (horseradish peroxidase) labeled anti-rabbit immunoglobulin G (H + L) secondary antibody was purchased from Abbkine (Redlands, CA, USA). MCF-7 cells were cultured as described above to a density of 10^6 cells per dish. […] Cells were washed with cold phosphate buffered saline (PBS, pH = 7.4) three times and lysed in radio immunoprecipitation assay (RIPA) lysate (containing 1% phenylmethanesulfonyl fluoride (PMSF)) on ice for 45 min. The lysates were collected and clarified at 12,000× g for 20 min at 4 °C using high speed refrigerated centrifuge. Protein concentration was determined by the bicinchoninic acid (BCA) protein assay kit. The protein sample (20 µg) was electrophoresed using 8% SDS-PAGE (sodium dodecyl sulfate- polyacrylamide gel electrophoresis), transferred to poly(vinylidene fluoride) (PVDF) membranes, and then blocked for 1 h in 5% skim milk in TBST (20 mM Tris-HCl pH 7.4, 100 mM NaCl, and 0.1% Tween 20). The membranes were immunoblotted with primary antibodies for 2 h at room temperature. After incubation with an HRP anti-rabbit IgG (H + L) (1:100,000) as a secondary antibody, the bands were detected using the ECL^TM Prime Western Blotting Detection System (ProteinSimple, San Jose, CA, USA). The density of proteins was determined using the AlphaView SA (Alpha Innotech Corp., version 3.4.0.0, San Leandro, CA, USA).

human Hsp90α = target: T1, human Hsp90α (Homo sapiens, UniProt P07900); assay: Fluorescence polarization (FP) competitive binding assay, Hsp90α N-Terminal Domain Assay Kit; conditions: FITC-labeled geldanamycin competition, mean ± SD, three experiments
T1 construct: FP assay using Hsp90α N-Terminal Domain Assay Kit (BPS Bioscience, Catalog #50293, CA, USA); purchased BPS Bioscience 50293
Experimental: In brief, the Hsp90 assay buffer (15 μL), 40 mM dithiothreitol (DTT) (5 μL), 2 mg/mL BSA (5 μL), and H2O (40 μL) were added to the plate. To each well, 100 nM fluorescein isothiocyanate (FITC)-labeled geldanamycin (5 μL) and diluted compounds in different concentrations (0.5, 5, 50, 500 μM, 10 μL) were added in an orderly manner. The reactions were initiated by adding 20 μL of Hsp90α (17 ng/μL). […] The data were analyzed using GraphPad Prism 5 (GraphPad Software, Inc.).

Hsp90 = assay: Western blotting, Hsp90 expression in MCF-7 cells; assay type: cell-based, human; conditions: 24 h; for expression of Hsp90: MCF-7 cells, compound at IC50 concentration
Experimental: as §2

Hsp70 = assay: Western blotting, Hsp70 expression in MCF-7 cells; assay type: cell-based, human; conditions: 24 h; for expression of Hsp70: MCF-7 cells, compound at IC50 concentration
Experimental: as §2

[1] = Homo sapiens, MCF7, Figure 3, mean ± SD, n = 3, read-out: anti-proliferative activity against MCF-7 cells (IC50), top 21 molecules from virtual screening
[2] = MCF-7 cells, compound at IC50 concentration
[3] = Homo sapiens, MCF7, MTT, 48-h post treatment, mean ± SD, three experiments, read-out: IC50 MCF-7
[4] = Homo sapiens, A549, 48-h post treatment
[5] = MCF-7 cells, 0, 5, 10, 20 and 40 µM

| Compound | IC50 (MCF-7 cells; [3]) [µM] | IC50 (A549 cells; [4]) [µM] | also measured |
| --- | --- | --- | --- |
| 1,3-dibenzyl-2-(3-bromo-5-thiazolyl)-imidazolidine [Compound 4k] |  |  | IC50 (MCF-7 cells; MTT, 48-h post treatment, mean ± SD, three experiments, read-out: IC50 MCF-7): 77.01 ± 0.01 µM; IC50 (A549 cells; 48-h post treatment): 498.8 ± 0.25 µM |
| COc1ccc(-c2nnc(SCC(=O)N3CCOCC3)n2Cc2ccccc2)cc1 [Compound 1b] |  |  | IC50 (MCF-7 cells; [1]): 133.6 ± 1.13 µM |
| CCOC(=O)c1nnn(Cc2ccccc2Cl)c1NC(=O)CN1CCC(C)CC1 [Compound 1c] |  |  | IC50 (MCF-7 cells; [1]): 134 ± 0.42 µM |
| NC(=O)c1nnn(Cc2ccccc2)c1NC(=O)CSc1nnc(-c2ccco2)o1 [Compound 1d] |  |  | IC50 (MCF-7 cells; [1]): 243.3 ± 0.99 µM |
| O=C(Cn1c(-c2ccccn2)nc2ccccc21)NCCc1ccccc1 [Compound 2a] |  |  | IC50 (MCF-7 cells; [1]): 190.6 ± 1.41 µM |
| O=C(Cn1c(-c2ccccn2)nc2ccccc21)NCCCN1CCOCC1 [Compound 2b] |  |  | IC50 (MCF-7 cells; [1]): 310.5 ± 0.71 µM |
| COc1ccc(C(=O)/C=C/Nc2ccc(S(=O)(=O)Nc3ccc(OC)nn3)cc2)cc1 [Compound 3a] |  |  | IC50 (MCF-7 cells; [1]): 29.2 ± 0.34 µM |
| Cc1cc(NC(=O)CCS(=O)(=O)c2nc(-c3ccc4c(c3)OCO4)cc(C(F)(F)F)n2)no1 [Compound 3b] |  |  | IC50 (MCF-7 cells; [1]): 32.4 ± 0.55 µM |
| O=S(=O)(c1ccccc1)c1nc(-c2ccc(Cl)cc2)oc1NCCCN1CCOCC1 [Compound 3d] |  |  | IC50 (MCF-7 cells; [1]): 70.34 ± 0.2 µM |
| O=S(=O)(c1ccccc1)c1nc(-c2ccco2)oc1NCc1ccc(F)cc1 [Compound 3e] |  |  | IC50 (MCF-7 cells; [1]): 238 ± 0.71 µM |
| O=[N+]([O-])c1ccc(C2N(Cc3ccccc3)CCN2Cc2ccccc2)s1 [Compound 4a] | 21.6 ± 0.57 | 31.22 ± 0.31 | expression level of Her2 (Her2; [2]): significantly down-regulated; expression level of Her2 down-regulated to (Her2; [2]): 48%; IC50 (human Hsp90α): 0.012 ± 0.01 µM; expression of Hsp90 (Hsp90): slightly increased; expression of Hsp70 (Hsp70): significantly induced |
| Cc1ccc(O)c(C2N(Cc3ccccc3)CCN2Cc2ccccc2)c1 [Compound 4b] | 50.62 ± 0.26 | 88.58 ± 0.08 | expression level of Her2 (Her2; [2]): significantly down-regulated; IC50 (human Hsp90α): 0.612 ± 0.014 µM; expression of Hsp90 (Hsp90): slightly increased; expression of Hsp70 (Hsp70): significantly induced |
| c1ccc(CN2CCN(Cc3ccccc3)C2c2cccs2)cc1 [Compound 4c, 1,3-dibenzyl-2-thiophene-imidazolidine] | 80.04 ± 0.63 | 78.18 ± 0.15 |  |
| Clc1ccc(C2N(Cc3ccccc3)CCN2Cc2ccccc2)s1 [Compound 4d, 1,3-dibenzyl-2-(5-chlorothiophene)-imidazolidine] | 68.35 ± 0.44 | 56.3 ± 1.27 | IC50 (human Hsp90α): 0.672 ± 0.01 µM |
| Cc1ccc(C2N(Cc3ccccc3)CCN2Cc2ccccc2)s1 [Compound 4e, 1,3-dibenzyl-2-(5-Methylthiophene)-imidazolidine] | 119.3 ± 0.42 | 113 ± 1.41 |  |
| c1ccc(CN2CCN(Cc3ccccc3)C2c2cc3ccccc3s2)cc1 [Compound 4f, 1,3-dibenzyl-2-(1-benzothiophene)-imidazolidine] | 219.4 ± 0.57 | 136 ± 1.41 |  |

| Compound | IC50 (MCF-7 cells; [3]) [µM] | IC50 (A549 cells; [4]) [µM] | also measured |
| --- | --- | --- | --- |
| O=[N+]([O-])c1ccccc1C1N(Cc2ccccc2)CCN1Cc1ccccc1 [Compound 4g, 1,3-dibenzyl-2-(2-nitro-phenyl)-imidazolidine] | 40.91 ± 0.05 | 40.6 ± 0.51 |  |
| O=[N+]([O-])c1ccc(C2N(Cc3ccccc3)CCN2Cc2ccccc2)cc1 [Compound 4h, 1,3-dibenzyl-2-(4-nitro-phenyl)-imidazolidine] | 117.7 ± 0.01 | 55.6 ± 0.49 |  |
| Fc1ccc(Cl)cc1C1N(Cc2ccccc2)CCN1Cc1ccccc1 [Compound 4i, 1,3-dibenzyl-2-(5-chloro-2-fluoro-phenyl)-imidazolidine] | 27.86 ± 0.01 | 59.3 ± 0.83 | IC50 (human Hsp90α): 0.61 ± 0.014 µM |
| Clc1ncc(C2N(Cc3ccccc3)CCN2Cc2ccccc2)s1 [Compound 4j, 1,3-dibenzyl-2-(2-chloro-5-thiazolyl)-imidazolidine] | 33.12 ± 0.23 | 35.3 ± 0.14 | expression level of Her2 regulated (Her2; [5]): concentration-dependent manner; IC50 (human Hsp90α): 0.31 ± 0.014 µM; expression level of Hsp90 regulated (Hsp90; [5]): concentration-dependent manner; expression level of Hsp70 regulated (Hsp70; [5]): concentration-dependent manner |
| Clc1ccc(C2N(Cc3ccccc3)CCN2Cc2ccccc2)c(Cl)n1 [Compound 4n] | 40.4 ± 0.51 | 52.11 ± 0.5 | IC50 (human Hsp90α): 0.102 ± 0.01 µM |
| Brc1cncc(C2N(Cc3ccccc3)CCN2Cc2ccccc2)c1 [Compound 4p] | 45.2 ± 0.63 | 72.87 ± 0.66 |  |
| c1ccc(CN2CCN(Cc3ccccc3)C2c2cncnc2)cc1 [Compound 4r] | 51.4 ± 0.54 | 80.8 ± 1 |  |
| c1ccc(N2CCN(c3ccccc3)C2c2ccco2)cc1 [Compound 6a] | 40.77 ± 0.39 | 123.4 ± 0.85 |  |
| Clc1ncc(C2N(c3ccccc3)CCN2c2ccccc2)s1 [Compound 6b] | 161.6 ± 0.57 | 172 ± 1.41 |  |
| Fc1ccc(Cl)cc1C1N(c2ccccc2)CCN1c1ccccc1 [Compound 6c] | 43.7 ± 1.03 | 46.14 ± 0.2 | IC50 (human Hsp90α): 1.93 ± 0.013 µM |
| Clc1ccc(C2N(c3ccccc3)CCN2c2ccccc2)c(Cl)n1 [Compound 6d] | 323 ± 2.28 | 248.6 ± 0.57 |  |
| CCN1CCN(CC)C1c1ccnc(Cl)c1 [Compound 7a] | > 500 | 250.1 ± 1.27 |  |
| CCN1CCN(CC)C1c1cc(Cl)ccc1F [Compound 7b] | 158.9 ± 0.14 | 164 ± 1.41 |  |
| CN1CCN(C)C1c1cc(Cl)ccc1F [Compound 8a] | 250.1 ± 0.27 | 149 ± 1.56 |  |
| C=CCNC1=C2CC(C)CC(OC)C(O)C(C)C=C(C)C(OC(N)=O)C(OC)C=CC=C(C)C(=O)NC(=CC1=O)C2=O (stereo not shown) [Compound 17-AAG, reference compound] | 7.18 ± 0.13 | 3.54 ± 0.08 |  |
